Test results: US10144742B2 (Millennium Pharmaceuticals, Inc., priority 2014, dated 2018)

Experiments:
hNAMPT protein = hNAMPT protein (Homo sapiens (Human), UniProt P43490); experiment: NAMPT enzyme assay (TR-FRET/HTRF, BodiPY ligand, anti 6His-Tb); type: binding; details: for IC50: NAMPT IC50 range class, read-out: IC50; for inhibition at 1 µM: compound concentration 1 μM, read-out: Percent Inhibition
In short: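 TR-FRET binding assay in which His-tagged human NAMPT with anti-6His-Tb is displaced by compound from a BodiPY ligand, incubated 1 h at rt in the dark. Excitation was at 320 nm, with the 520/486 nm emission ratio read. IC50 was fitted from inhibition relative to DMSO controls.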

PC3 cells = experiment: PC3 growth inhibition (Cell-titer glo, 72 hours); type: cell-based; details: Homo sapiens, PC-3; compound concentration 1.667 μM; PC3 cells, 72 hours, Cell-titer glo; read-out: Percent Inhibition (PC3 growth inhibition)
In short: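 PC3 cells in RPMI1640 seeded overnight at 37 °C, 5% CO2, then exposed to compound diluted in AIM serum-free medium for 72 h. Viability by CellTiter-Glo luminescence vs DMSO controls; single-concentration % remaining viability (1 μM or 1.667 μM), or GI50/LD50 from curves.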

Sequence of hNAMPT protein (P43490 whole entry): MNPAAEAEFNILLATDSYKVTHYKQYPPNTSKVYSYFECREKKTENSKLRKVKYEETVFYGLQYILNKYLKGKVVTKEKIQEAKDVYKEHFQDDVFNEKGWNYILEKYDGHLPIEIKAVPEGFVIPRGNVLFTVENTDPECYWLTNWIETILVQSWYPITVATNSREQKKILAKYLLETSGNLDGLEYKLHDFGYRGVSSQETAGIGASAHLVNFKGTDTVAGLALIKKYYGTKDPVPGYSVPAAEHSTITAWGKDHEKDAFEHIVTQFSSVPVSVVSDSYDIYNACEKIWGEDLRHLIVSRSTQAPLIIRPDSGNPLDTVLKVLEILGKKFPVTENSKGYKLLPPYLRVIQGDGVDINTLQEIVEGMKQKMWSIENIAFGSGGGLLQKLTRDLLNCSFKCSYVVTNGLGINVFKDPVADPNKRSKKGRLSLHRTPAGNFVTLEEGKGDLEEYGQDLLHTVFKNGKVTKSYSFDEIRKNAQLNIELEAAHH

| SMILES | IC50 (hNAMPT protein) [nM] | inhibition at 1 µM (hNAMPT protein) [%] | inhibition at 1.667 µM (PC3 cells) [%] |
| --- | --- | --- | --- |
| O=C(NCCCc1ncc[nH]1)c1ccc2nc(OC3COC3)c(-c3ccc(Cl)cc3)nc2c1 [Compound I-318, 3-(4-chlorophenyl)-N-[3-(1H-imidazol-2-yl)propyl]-2-(oxetan-3-yloxy)quinoxaline-6-carboxamide] | < 100 | 97 | 2 |
| O=C(NCCCc1ncc[nH]1)c1ccc2nc(-c3ccc(F)cc3)c(-c3cc(F)ccc3F)nc2c1 [Compound I-319, 3-(2,5-difluorophenyl)-2-(4-fluorophenyl)-N-[3-(1H-imidazol-2-yl)propyl]quinoxaline-6-carboxamide] | < 100 | 94 | 3 |
| O=C(NCCCc1ncc[nH]1)c1ccc2nc(-c3ccc(F)cc3)c(-c3ccc4c(c3)OCCO4)nc2c1 [Compound I-320, 3-(2,3-dihydro-1,4-benzodioxin-6-yl)-2-(4-fluorophenyl)-N-[3-(1H-imidazol-2-yl)propyl]quinoxaline-6-carboxamide] | 500 to 1000 | 63 | 3 |
| Cn1cc(CCOc2nc3ccc(C(=O)NCCCc4ncc[nH]4)cc3nc2-c2ccc(F)cc2)cn1 [Compound I-321, 3-(4-fluorophenyl)-N-[3-(1H-imidazol-2-yl)propyl]-2-[2-(1-methyl-1H-pyrazol-4-yl)ethoxy]quinoxaline-6-carboxamide] | < 100 | > 99 | 2 |
| O=C(NCCCc1ncc[nH]1)c1ccc2nc(OCCO)c(-c3ccc(F)cc3)nc2c1 [Compound I-322, 3-(4-fluorophenyl)-2-(2-hydroxyethoxy)-N-[3-(1H-imidazol-2-yl)propyl]quinoxaline-6-carboxamide] | < 100 | 96 | 2 |
| O=C(NCCCc1ncc[nH]1)c1ccc2nc(OCC3CCCCO3)c(-c3ccc(F)cc3)nc2c1 (stereo not drawn) [Compound I-323, 3-(4-fluorophenyl)-N-[3-(1H-imidazol-2-yl)propyl]-2-(tetrahydro-2H-pyran-2-ylmethoxy)quinoxaline-6-carboxamide] | < 100 | 99 | 3 |
| O=C(NCCCc1ncc[nH]1)c1ccc2nc(-n3ccnc3)c(-c3ccc(F)cc3)nc2c1 [Compound I-324, 3-(4-fluorophenyl)-2-(1H-imidazol-1-yl)-N-[3-(1H-imidazol-2-yl)propyl]quinoxaline-6-carboxamide] | 500 to 1000 | 57 | 3 |
| O=C(NCCCc1ncc[nH]1)c1ccc2nc(-c3ccc(F)cc3)c(-c3cncs3)nc2c1 [Compound I-325, 2-(4-fluorophenyl)-N-[3-(1H-imidazol-2-yl)propyl]-3-(1,3-thiazol-5-yl)quinoxaline-6-carboxamide] | < 100 | > 99 | 4 |
| O=C(NCCCc1ncc[nH]1)c1ccc2nc(OCc3ccsc3)c(-c3ccc(F)cc3)nc2c1 [Compound I-326, 3-(4-fluorophenyl)-N-[3-(1H-imidazol-2-yl)propyl]-2-(3-thienylmethoxy)quinoxaline-6-carboxamide] | < 100 | 92 | 3 |
| CN1CCC(COc2nc3ccc(C(=O)NCCCc4ncc[nH]4)cc3nc2-c2ccc(F)cc2)CC1 [Compound I-327, 3-(4-fluorophenyl)-N-[3-(1H-imidazol-2-yl)propyl]-2-[(1-methylpiperidin-4-yl)methoxy]quinoxaline-6-carboxamide] | < 100 | > 99 | 2 |
| O=C(NCCCc1ncc[nH]1)c1ccc2nc(-c3ccc(F)cc3)c(-c3cccc(C(F)(F)F)c3)nc2c1 [Compound I-328, 2-(4-fluorophenyl)-N-[3-(1H-imidazol-2-yl)propyl]-3-[3-(trifluoromethyl)phenyl]quinoxaline-6-carboxamide] | 100 to 500 | 84 | 3 |
| O=C(NCCCc1ncc[nH]1)c1ccc2nc(OCC3CCC3)c(-c3ccc(F)cc3)nc2c1 [Compound I-329, 2-(cyclobutylmethoxy)-3-(4-fluorophenyl)-N-[3-(1H-imidazol-2-yl)propyl]quinoxaline-6-carboxamide] | < 100 | 95 | 3 |
| O=C(NCCCc1ncc[nH]1)c1ccc2nc(-n3nccn3)c(-c3ccc(F)cc3)nc2c1 [Compound I-330, N-(3-(1H-imidazol-2-yl)propyl)-3-(4-fluorophenyl)-2-(2H-1,2,3-triazol-2-yl)quinoxaline-6-carboxamide] | 100 to 500 | 79 | 3 |
| CNC1CC(Oc2nc3ccc(C(=O)NCCCc4ncc[nH]4)cc3nc2-c2ccc(F)cc2)C1 (stereo not drawn) [Compound I-331, 3-(4-fluorophenyl)-N-[3-(1H-imidazol-2-yl)propyl]-2-[3-(methylamino)cyclobutoxy]quinoxaline-6-carboxamide] | < 100 | > 99 | 2 |
| Cn1cc(COc2nc3ccc(C(=O)NCCCc4ncc[nH]4)cc3nc2-c2ccc(F)cc2)cn1 [Compound I-332, 3-(4-fluorophenyl)-N-[3-(1H-imidazol-2-yl)propyl]-2-[(1-methyl-1H-pyrazol-4-yl)methoxy]quinoxaline-6-carboxamide] | < 100 | > 99 | 34 |
| COc1cc(-c2nc3cc(C(=O)NCc4ccc5nccn5c4)ccc3nc2-c2ccc(F)cc2)c(F)cn1 [Compound I-333, 3-(5-fluoro-2-methoxypyridin-4-yl)-2-(4-fluorophenyl)-N-(imidazo[1,2-a]pyridin-6-ylmethyl)quinoxaline-6-carboxamide] | 100 to 500 | 63 | 0 |
| CC(C)Oc1nc2ccc(C(=O)NCCCc3ncc[nH]3)cc2nc1-c1ccc(Cl)s1 [Compound I-334, 3-(5-chloro-2-thienyl)-N-[3-(1H-imidazol-2-yl)propyl]-2-isopropoxyquinoxaline-6-carboxamide] | < 100 | > 99 | 1 |
| Cc1cc(C)cc(-c2nc3cc(C(=O)NCCCc4ncc[nH]4)ccc3nc2-c2ccc(F)cc2)c1 [Compound I-335, 3-(3,5-dimethylphenyl)-2-(4-fluorophenyl)-N-[3-(1H-imidazol-2-yl)propyl]quinoxaline-6-carboxamide] | 100 to 500 | 85 | 2 |
| Cc1ccc(F)cc1-c1nc2cc(C(=O)NCCCc3ncc[nH]3)ccc2nc1-c1ccc(F)cc1 [Compound I-336, 3-(5-fluoro-2-methylphenyl)-2-(4-fluorophenyl)-N-[3-(1H-imidazol-2-yl)propyl]quinoxaline-6-carboxamide] | 100 to 500 | 88 | 1 |
| O=C(NCCCc1ncc[nH]1)c1ccc2nc(-c3ccc(F)cc3)c(-c3cc(F)c(F)cc3F)nc2c1 [Compound I-337, 2-(4-fluorophenyl)-N-[3-(1H-imidazol-2-yl)propyl]-3-(2,4,5-trifluorophenyl)quinoxaline-6-carboxamide] | 100 to 500 | 88 | 3 |
| CO[C@H]1C[C@H](Oc2nc3ccc(C(=O)NCCCc4ncc[nH]4)cc3nc2-c2ccc(F)cc2)C1 [Compound I-338, 3-(4-fluorophenyl)-N-[3-(1H-imidazol-2-yl)propyl]-2-[(trans-3-methoxycyclobutyl)oxy]quinoxaline-6-carboxamide] | < 100 | > 99 | 1 |
| CC(C)Oc1nc2ccc(C(=O)NCCCc3ncc[nH]3)cc2nc1-c1ccc(F)c(F)c1 [Compound I-339, 3-(3,4-difluorophenyl)-N-[3-(1H-imidazol-2-yl)propyl]-2-isopropoxyquinoxaline-6-carboxamide] | < 100 | 91 | 1 |
| O=C(NCCCc1ncc[nH]1)c1ccc2nc(-c3ccc(F)cc3)c(-c3cccs3)nc2c1 [Compound I-340, 2-(4-Fluorophenyl)-N-[3-(1H-imidazol-2-yl)propyl]-3-(2-thienyl)quinoxaline-6-carboxamide] | < 100 | > 99 | 3 |
| CC(C)(C)OCc1nc2ccc(C(=O)NCCCc3ncc[nH]3)cc2nc1-c1ccc(F)cc1 [Compound I-341, N-(3-(1H-imidazol-2-yl)propyl)-2-(tert-butoxymethyl)-3-(4-fluorophenyl)quinoxaline-6-carboxamide] | 100 to 500 | 73 | 1 |
| Cc1ccsc1-c1nc2cc(C(=O)NCCCc3ncc[nH]3)ccc2nc1-c1ccc(F)cc1 [Compound I-342, 2-(4-fluorophenyl)-N-[3-(1H-imidazol-2-yl)propyl]-3-(3-methyl-2-thienyl)quinoxaline-6-carboxamide] | < 100 | 89 | 3 |
| CCOc1ccc(F)c(-c2nc3cc(C(=O)NCCCc4ncc[nH]4)ccc3nc2-c2ccc(F)cc2)c1 [Compound I-343, 3-(5-ethoxy-2-fluorophenyl)-2-(4-fluorophenyl)-N-[3-(1H-imidazol-2-yl)propyl]quinoxaline-6-carboxamide] | 100 to 500 | 82 | 1 |
